Source: US20170333591A9, “ABSORBENT ARTICLE COMPRISING MALODOR REDUCTION COMPOSITIONS” (The Procter & Gamble Company, priority 2014, published 2017)

Experiment: Log of liquid dish neat product liquid-air partition coefficient
Format: physicochemical
Conditions: for Log of liquid dish neat product liquid-air partition coefficient (Comment Code K/L): code letter within the Comment Code cell

Row | SMILES | Log of liquid dish neat product liquid-air partition coefficient (Comment Code K/L) | Comment Code: Log of liquid dish neat product liquid-air partition coefficient
1 | CCC(=O)OC1CC2CCC1(C)C2(C)C (stereo not drawn) [Material 228] | K (Log of liquid dish neat product liquid-air partition coefficient greater than or equal to 7) | –
2 | CC(C)C(=O)OC1CC2CCC1(C)C2(C)C (stereo not drawn) [Material 229] | K (Log of liquid dish neat product liquid-air partition coefficient greater than or equal to 7) | K (Log of liquid dish neat product liquid-air partition coefficient greater than or equal to 7)
3 | CC1C2CC(CC2C2CCC(O)CC2)C1(C)C (stereo not drawn) [Material 230] | K (Log of liquid dish neat product liquid-air partition coefficient greater than or equal to 7) | K (Log of liquid dish neat product liquid-air partition coefficient greater than or equal to 7)
4 | C=CCCCCCCCCC(=O)OCCC(C)C [Material 234] | K (Log of liquid dish neat product liquid-air partition coefficient greater than or equal to 7) | –
5 | CCCCCCCC(=O)OCCC(C)C [Material 237] | – | K (Log of liquid dish neat product liquid-air partition coefficient greater than or equal to 7)
6 | CCCCCCCCCCCC(=O)OCCC(C)C [Material 238] | K (Log of liquid dish neat product liquid-air partition coefficient greater than or equal to 7) | –
7 | c1ccc2c(c1)CC1COCOC21 (stereo not drawn) [Material 247] | K (Log of liquid dish neat product liquid-air partition coefficient greater than or equal to 7) | –
8 | CC1(C)C2=C(CO)CCC(C)(C)C23CCC1C3 (stereo not drawn) [Material 248] | – | K (Log of liquid dish neat product liquid-air partition coefficient greater than or equal to 7)
9 | CC(CCO)CCCC(C)(C)O (stereo not drawn) [Material 249] | K (Log of liquid dish neat product liquid-air partition coefficient greater than or equal to 7) | –
10 | CC(CO)C1CCCCCCCCCCC1 (stereo not drawn) [Material 252] | K (Log of liquid dish neat product liquid-air partition coefficient greater than or equal to 7) | –
11 | OCCCc1ccccc1 [Material 254] | K (Log of liquid dish neat product liquid-air partition coefficient greater than or equal to 7) | –
12 | O=C(O)CCc1ccccc1 [Material 255] | – | K (Log of liquid dish neat product liquid-air partition coefficient greater than or equal to 7)
13 | COC(OC)C(C)c1ccccc1 (stereo not drawn) [Material 256] | K (Log of liquid dish neat product liquid-air partition coefficient greater than or equal to 7) | –
14 | CCC1=C(O)C(=O)C(C)O1 (stereo not drawn) [Material 259] | K (Log of liquid dish neat product liquid-air partition coefficient greater than or equal to 7) | –
15 | CC1(C)CCc2ccc(CCC=O)cc21 [Material 260] | K (Log of liquid dish neat product liquid-air partition coefficient greater than or equal to 7) | K (Log of liquid dish neat product liquid-air partition coefficient greater than or equal to 7)
16 | CC1(C)CCc2ccc(CCC=O)cc21 [Material 261] | K (Log of liquid dish neat product liquid-air partition coefficient greater than or equal to 7) | K (Log of liquid dish neat product liquid-air partition coefficient greater than or equal to 7)
17 | CCCCCCCC(=O)OCCCCCC [Material 263] | K (Log of liquid dish neat product liquid-air partition coefficient greater than or equal to 7) | –
18 | CCCCCCOC(=O)c1ccccc1 [Material 271] | K (Log of liquid dish neat product liquid-air partition coefficient greater than or equal to 7) | –
19 | CC=C(C)C(=O)OCCC=CCC [Material 274] | K (Log of liquid dish neat product liquid-air partition coefficient greater than or equal to 7) | –
20 | CCCCCCOC(=O)c1ccco1 [Material 275] | – | K (Log of liquid dish neat product liquid-air partition coefficient greater than or equal to 7)
21 | O=C1CCCCCCCCCCCCCCCO1 [Material 277] | K (Log of liquid dish neat product liquid-air partition coefficient greater than or equal to 7) | –
22 | CCOC(=O)C1C2C=CC(C2)C1C(C)C (stereo not drawn) [Material 280] | K (Log of liquid dish neat product liquid-air partition coefficient greater than or equal to 7) | –

Row | SMILES | Log of liquid dish neat product liquid-air partition coefficient (Comment Code K/L) | Comment Code: Log of liquid dish neat product liquid-air partition coefficient
23 | CC(=O)OC1CC2CC1C1CC=CC21 (stereo not drawn) [Material 281] | K (Log of liquid dish neat product liquid-air partition coefficient greater than or equal to 7) | K (Log of liquid dish neat product liquid-air partition coefficient greater than or equal to 7)
24 | O=Cc1ccc2c(c1)OCO2 [Material 287] | – | K (Log of liquid dish neat product liquid-air partition coefficient greater than or equal to 7)
25 | CC(C=O)Cc1ccc2c(c1)OCO2 (stereo not drawn) [Material 288] | K (Log of liquid dish neat product liquid-air partition coefficient greater than or equal to 7) | –
26 | O=C1CCCCCCCCCC/C=C/CCO1 [Material 289] | K (Log of liquid dish neat product liquid-air partition coefficient greater than or equal to 7) | –
27 | CC1CCC(C(C)(C)O)CC2=C1CCC2C (stereo not drawn) [Material 292] | K (Log of liquid dish neat product liquid-air partition coefficient greater than or equal to 7) | –
28 | CCC(=O)CCC1C(C)=CCCC1(C)C (stereo not drawn) [Material 293] | K (Log of liquid dish neat product liquid-air partition coefficient greater than or equal to 7) | –
29 | CCOC(=O)C1C(CC)=CCCC1(C)C (stereo not drawn) [Material 294] | K (Log of liquid dish neat product liquid-air partition coefficient greater than or equal to 7) | –
30 | CC1=CCC(=C(C)C)CCC(C)=CCC1 [Material 295] | K (Log of liquid dish neat product liquid-air partition coefficient greater than or equal to 7) | –
31 | C=C1C=CC(C(C)C)CCC(C)=CCC1 (stereo not drawn) [Material 296] | K (Log of liquid dish neat product liquid-air partition coefficient greater than or equal to 7) | –
32 | CC(C)=CCC/C(C)=C/COC=O [Material 306] | – | K (Log of liquid dish neat product liquid-air partition coefficient greater than or equal to 7)
33 | CCC(C)C(=O)N(C)c1ccccc1 (stereo not drawn) [Material 314] | – | K (Log of liquid dish neat product liquid-air partition coefficient greater than or equal to 7)
34 | CC(=O)OC1(C)CCC(=C(C)C)CC1 (stereo not drawn) [Material 317] | K (Log of liquid dish neat product liquid-air partition coefficient greater than or equal to 7) | –
35 | CC(C)=C1CCC(C)(O)CC1 (stereo not drawn) [Material 318] | K (Log of liquid dish neat product liquid-air partition coefficient greater than or equal to 7) | –
36 | C=C1CCCC(C)(C)C1C=CC(C)=O (stereo not drawn) [Material 324] | K (Log of liquid dish neat product liquid-air partition coefficient greater than or equal to 7) | –
37 | CC1=C2CC(C(C)(C)O)CCC2(C)CCC1 (stereo not drawn) [Material 329] | K (Log of liquid dish neat product liquid-air partition coefficient greater than or equal to 7) | K (Log of liquid dish neat product liquid-air partition coefficient greater than or equal to 7)
38 | CCCCCCCCC1CCC(=O)O1 (stereo not drawn) [Material 330] | K (Log of liquid dish neat product liquid-air partition coefficient greater than or equal to 7) | –
39 | C=C1CCCC(C)(C)C1C(=O)C=CC (stereo not drawn) [Material 331] | K (Log of liquid dish neat product liquid-air partition coefficient greater than or equal to 7) | –
40 | C=CCCC(=O)C1CCCC(C)(C)C1 (stereo not drawn) [Material 334] | K (Log of liquid dish neat product liquid-air partition coefficient greater than or equal to 7) | –
41 | CC1COCc2cc3c(cc21)C(C)(C)C(C)C3(C)C (stereo not drawn) [Material 335] | K (Log of liquid dish neat product liquid-air partition coefficient greater than or equal to 7) | K (Log of liquid dish neat product liquid-air partition coefficient greater than or equal to 7)
42 | CCCCCCCC(=O)OCc1ccco1 [Material 336] | K (Log of liquid dish neat product liquid-air partition coefficient greater than or equal to 7) | –
43 | CCCCCC(=O)OCc1ccco1 [Material 338] | K (Log of liquid dish neat product liquid-air partition coefficient greater than or equal to 7) | –
44 | CCCCCCC(=O)OCc1ccco1 [Material 339] | K (Log of liquid dish neat product liquid-air partition coefficient greater than or equal to 7) | –
